This passage reports ROK activity results from patent US20090163515A1, “Compounds Which Bind to the Active Site of Protein Kinase Enzymes” (Biofocus Discovery Ltd., priority 2003, published 2009).

The subject of this experiment is ROK. Nature of the experiment: ROK activity assay. The experiment is classed as biochemical. The conditions noted are these: assays conducted at 1-100 μM. The arrangement: key: +: active; ++: more active; +++: very active.
For the compound `Clc1cccc(CNc2cnc(-c3ccncc3)cn2)c1` [(3-Chloro-benzyl)-(5-pyridin-4-yl-pyrazin-2-yl)-amine], the ROK activity result is “++”.

Take `c1csc(CNc2cnc(-c3ccncc3)cn2)c1` [(5-Pyridin-4-yl-pyrazin-2-yl)-thiophen-2-ylmethyl-amine]: the ROK activity result is listed as “++”. Turning to `Oc1ccc(-c2cnc(NCc3cccc(Cl)c3)cn2)cc1` [4-[5-(3-Chloro-benzylamino)-pyrazin-2-yl]-phenol], the ROK activity entry is “+”.

With `Oc1ccc(-c2cncc(NCc3ccc(Cl)cc3)c2)cc1` [4-[5-(4-Chloro-benzylamino)-pyridin-3-yl]-phenol], the ROK activity result is reported as “++”. With `FC(F)(F)Oc1ccc(-c2cnc(NCCc3ccncc3)cn2)cc1` [(2-Pyridin-4-yl-ethyl)-[5-(4-trifluoromethoxy-phenyl)-pyrazin-2-yl]-amine] the entry was “++”. As for `Clc1cccc(CNc2cncc(-c3ccncc3)c2)c1` [[3,4′]Bipyridinyl-5-yl-(3-chloro-benzyl)-amine], the ROK activity result is “++”. As for `c1ccc2oc(-c3cnc(NCCc4ccncc4)cn3)cc2c1` [(5-Benzofuran-2-yl-pyrazin-2-yl)-(2-pyridin-4-yl-ethyl)-amine], the ROK activity entry was “++”. Consider `COc1ccc(CNc2cnc(-c3ccncc3)cn2)cc1` [(4-Methoxy-benzyl)-(5-pyridin-4-yl-pyrazin-2-yl)-amine], for which the ROK activity entry was “+”. Turning to `OCCC1CCCCN1c1cnc(-c2ccncc2)cn1` (centres unmarked) [2-[1-(5-Pyridin-4-yl-pyrazin-2-yl)-piperidin-2-yl]-ethanol], the ROK activity result was “+”. As for `c1ccc2cc(CNc3cncc(-c4ccncc4)c3)ccc2c1` [[3,4′]Bipyridinyl-5-yl-naphthalen-2-ylmethyl-amine], the ROK activity result was “++”. In the case of `COc1ccc(-c2cnc(NCCc3ccncc3)cn2)cc1` [[5-(4-Methoxy-phenyl)-pyrazin-2-yl]-(2-pyridin-4-yl-ethyl)-amine], the ROK activity entry is “++”. With `FC(F)(F)Oc1cccc(CNc2cncc(-c3ccncc3)c2)c1` [[3,4′]Bipyridinyl-5-yl-(3-trifluoromethoxy-benzyl)-amine] the entry was “++”.

As to `OCc1ccc(-c2cncc(NCc3cccc(O)c3)c2)cc1` [3-{[5-(4-Hydroxymethyl-phenyl)-pyridin-3-ylamino]-methyl}-phenol], the ROK activity result was “+”. For the compound `NC(=O)c1cccc(-c2cncc(NCc3ccc(O)cc3)c2)c1` [3-[5-(4-Hydroxy-benzylamino)-pyridin-3-yl]-benzamide], the ROK activity result is recorded as “++”.

Consider `Oc1cccc(CNc2cncc(-c3cc[nH]n3)c2)c1` [3-{[5-(1H-Pyrazol-3-yl)-pyridin-3-ylamino]-methyl}-phenol], for which the ROK activity entry is listed as “++”. Consider `COc1cncc(-c2cncc(NCc3cccc(O)c3)c2)c1` [3-[(5′-Methoxy-[3,3′]bipyridinyl-5-ylamino)-methyl]-phenol], for which the ROK activity result is “+”. Turning to `Oc1ccc(-c2cncc(NCC3CCCCC3)c2)cc1` [4-[5-(Cyclohexylmethyl-amino)-pyridin-3-yl]-phenol], the ROK activity result was “+”.

Take `NC(=O)c1cccc(-c2cncc(NCc3ccoc3)c2)c1` [3-{5-[(Furan-3-ylmethyl)-amino]-pyridin-3-yl}-benzamide]: the ROK activity entry is reported as “+”. In the case of `Oc1cccc(CNc2cncc(-c3ccc4c(c3)OCO4)c2)c1` [3-[(5-Benzo[1,3]dioxol-5-yl-pyridin-3-ylamino)-methyl]-phenol], the ROK activity result was “++”.

Regarding `c1ccc2cc(-c3cnc(NCCc4ccncc4)cn3)ccc2c1` [(5-Naphthalen-2-yl-pyrazin-2-yl)-(2-pyridin-4-yl-ethyl)-amine], the ROK activity result was “++”. Under `OCc1cccc(-c2cncc(NCc3cccc(O)c3)c2)c1` [3-{[5-(3-Hydroxymethyl-phenyl)-pyridin-3-ylamino]-methyl}-phenol] stands “+”; under `COc1ccc(CNc2cncc(-c3ccc(O)cc3)c2)cc1O` [5-{[5-(4-Hydroxy-phenyl)-pyridin-3-ylamino]-methyl}-2-methoxy-phenol], “++”; under `Oc1cccc(-c2cncc(Nc3ccc(Cl)cc3)c2)c1` [3-[5-(4-Chloro-phenylamino)-pyridin-3-yl]-phenol], “+”. Take `NC(=O)c1cccc(-c2cncc(NCc3cccc(OC(F)(F)F)c3)c2)c1` [3-[5-(3-Trifluoromethoxy-benzylamino)-pyridin-3-yl]-benzamide]: the ROK activity result is listed as “++”. With `Oc1cccc(CNc2cncc(-c3ccc4[nH]ccc4c3)c2)c1` [3-{[5-(1H-Indol-5-yl)-pyridin-3-ylamino]-methyl}-phenol] the entry was “+”; with `Oc1ccc(-c2cncc(Nc3cccc(O)c3)c2)cc1` [4-[5-(3-Hydroxy-phenylamino)-pyridin-3-yl]-phenol], “++”; with `COc1ccc(CNc2cncc(-c3cccc(C(N)=O)c3)c2)cc1` [3-[5-(4-Methoxy-benzylamino)-pyridin-3-yl]-benzamide], “+”. With `c1cc(-c2cncc(NCc3ccoc3)c2)ccn1` [[3,4′]Bipyridinyl-5-yl-furan-3-ylmethyl-amine] the entry was “++”; with `COc1cc(-c2cnc(NCCc3ccncc3)cn2)cc(OC)c1OC` [(2-Pyridin-4-yl-ethyl)-[5-(3,4,5-trimethoxy-phenyl)-pyrazin-2-yl]-amine], “++”. Under `Oc1ccc(-c2cncc(NCC3CCCN3)c2)cc1` (centres unmarked) [4-{5-[(Pyrrolidin-2-ylmethyl)-amino]-pyridin-3-yl}-phenol] stands “++”. As for `NC(=O)c1cccc(-c2cncc(NCc3cccnc3)c2)c1` [3-{5-[(Pyridin-3-ylmethyl)-amino]-pyridin-3-yl}-benzamide], the ROK activity result is reported as “+”.

For `Oc1cccc(-c2cncc(Nc3ccc4ccccc4c3)c2)c1` [3-[5-(Naphthalen-2-ylamino)-pyridin-3-yl]-phenol], the ROK activity result is “+”. Under `CC(=O)c1ccc(-c2cnc(NCCc3ccncc3)cn2)s1` [1-{5-[5-(2-Pyridin-4-yl-ethylamino)-pyrazin-2-yl]-thiophen-2-yl}-ethanone] stands “+”; under `NC(=O)c1cccc(-c2cncc(NCC3CCCCC3)c2)c1` [3-[5-(Cyclohexylmethyl-amino)-pyridin-3-yl]-benzamide], “+”; under `Nc1ccc(-c2cncc(NCc3cccc(O)c3)c2)cc1` [3-{[5-(4-Amino-phenyl)-pyridin-3-ylamino]-methyl}-phenol], “+”. Under `Clc1ccc(CNc2cncc(-c3ccncc3)c2)cc1Cl` [[3,4′]Bipyridinyl-5-yl-(3,4-dichloro-benzyl)-amine] stands “++”; under `Nc1ccc(C(=O)Nc2ccc(Nc3cnc(-c4ccncc4Cl)cn3)cc2)cc1` [4-Amino-N-{4-[5-(3-chloro-pyridin-4-yl)-pyrazin-2-ylamino]-phenyl}-benzamide], “++”.

`COc1ccc(Nc2cncc(-c3cccc(O)c3)c2)cc1` [3-[5-(4-Methoxy-phenylamino)-pyridin-3-yl]-phenol]: the ROK activity entry was “++”. Consider `c1cc(CCNc2cnc(-c3ccc4c(c3)OCO4)cn2)ccn1` [(5-Benzo[1,3]dioxol-5-yl-pyrazin-2-yl)-(2-pyridin-4-yl-ethyl)-amine], for which the ROK activity entry is “++”. Under `c1cc(-c2cncc(NCC3CCCCC3)c2)ccn1` [[3,4′]Bipyridinyl-5-yl-cyclohexylmethyl-amine] stands “++”; under `Oc1cccc(Nc2cncc(-c3ccncc3)c2)c1` [3-([3,4′]Bipyridinyl-5-ylamino)-phenol], “++”.

Turning to `FC(F)(F)Oc1cccc(-c2cnc(NCCc3ccncc3)cn2)c1` [(2-Pyridin-4-yl-ethyl)-[5-(3-trifluoromethoxy-phenyl)-pyrazin-2-yl]-amine], the ROK activity result is on record as “++”. On to `O=C(NCCO)c1cccc(-c2cnc(NCCc3ccncc3)cn2)c1` [N-(2-Hydroxy-ethyl)-3-[5-(2-pyridin-4-yl-ethylamino)-pyrazin-2-yl]-benzamide], for which the ROK activity result is “+”. `Oc1cccc(CNc2cncc(-c3cncc4ccccc34)c2)c1` [3-[(5-Isoquinolin-4-yl-pyridin-3-ylamino)-methyl]-phenol]: the ROK activity entry is given as “+”. As to `Oc1cccc(CNc2cncc(-c3ccccc3)c2)c1` [3-[(5-Phenyl-pyridin-3-ylamino)-methyl]-phenol], the ROK activity result is recorded as “+”. Under `Oc1ccc(-c2cncc(NCc3cccc(OC(F)(F)F)c3)c2)cc1` [4-[5-(3-Trifluoromethoxy-benzylamino)-pyridin-3-yl]-phenol] stands “+”; under `Clc1cccc(Nc2cncc(-c3ccncc3)c2)c1` [[3,4′]Bipyridinyl-5-yl-(3-chloro-phenyl)-amine], “++”; under `Clc1ccc(CNc2cncc(-c3ccncc3)c2)cc1` [[3,4′]Bipyridinyl-5-yl-(4-chloro-benzyl)-amine], “+++”. With `CN(Cc1cccc(O)c1)c1cncc(-c2ccc(O)cc2)c1` [4-{5-[(3-hydroxy-benzyl)-methyl-amino]-pyridin-3-yl}-phenol] the entry was “+”; with `Oc1ccc(-c2cncc(NCc3cc(O)cc(O)c3)c2)cc1` [5-{[5-(4-Hydroxy-phenyl)-pyridin-3-ylamino]-methyl}-benzene-1,3-diol], “++”.
